Assay results published in patent US20130102752A1, “BENZINDOCYANINE COMPOUND FOR LABELING SUBSTANCE, INTERMEDIATE THEREOF, AND METHOD FOR PREPARING THE SAME” (DKC CORPORATION, priority 2010, published 2013).

How the values were obtained:
[1] = Absorption wavelength of the synthesized dye (HP 8452 diode array spectrophotometer); format: physicochemical
Method: (§1) First, the experimental apparatuses, analytical instruments and reagents used in the examples and experiments are described. Bruker's Avance 300 and 400 were used for FT-NMR spectroscopy, and the Voyager MALDI-TOF DE mass spectrometer was used for MALDI-TOF M/S. Absorption wavelength of the synthesized dye and the absorbance at maximum absorption wavelength were measured using Hewlett-Packard's HP 8452 diode array spectrophotometer. Emission wavelength and light emission at maximum emission wavelength were measured using Perkin Elmer's LS-55.

[2] = Emission wavelength at maximum emission (Perkin Elmer LS-55); format: physicochemical
Method: as §1

[3] = system: marker proteins (Amersham LMW calibration kit: phosphorylase b, albumin, ovalbumin, carbonic anhydrase, trypsin inhibitor, α-lactalbumin); assay: Staining of proteins, separated by gel electrophoresis, fluorescence image; settings: 0.1M phosphate buffer pH 9.0, room temperature, 1 hour; electrophoresis 125 V, 2 hours
Method: Gel electrophoresis was carried out using Bio-Rad's PowerPac Basic Power Supply (Catalog No. 164-5050) coupled to the Amersham Biosciences's SE260 mini-vertical gel electrophoresis unit. Lonza's PAGEr Gold Precast Gels (polyacrylamide gels for protein electrophoresis, 10-20% Tris-glycine gels, Catalog No. 59506) were used as gels. Running and loading buffers for SDS-PAGE were prepared as follows prior to use.
Size markers commercially available from GE Healthcare and Takara were used as proteins. Perkin Elmer's Geliance 600 was used for observation of labeled biomolecules and measurement of fluorescence intensity. Geliance UV Epi (Catalog No. L7110026) and Geliance Blue Epi (Catalog No. L7110027) were used as light sources. Measurement was carried out using UV filter, Geliance short-pass filter (500-600 nm), Geliance long-pass filter (580-660 nm) and Geliance blue light filter (550-600 nm) while changing the filters in accordance with fluorescence wavelengths.
Each vial of one pack of Amersham™ LMW calibration kit (17-0446-01) for SDS electrophoresis commercially available from GE Healthcare contains 576 μg of six marker proteins, which are phosphorylase b (97 kD, 67 μg), albumin (66 kD, 83 μg), ovalbumin (45 kD, 147 μg), carbonic anhydrase (30 kD, 83 μg), trypsin inhibitor (20.1 kD, 80 μg) and α-lactalbumin (14.4 kD, 116 μg). […]

Structure (SMILES) | λabs (water) [1] | λfl (water) [2] | λabs (methanol) [1] | λfl (methanol) [2] | visibility of stained proteins after gel electrophoresis (FIG. 1) [3]
CC[N+]1=C(/C=C/C=C2/N(CCCCCC(=O)O)c3ccc4c(S(=O)(=O)O)cc(S(=O)(=O)O)cc4c3C2(C)C)C(C)(C)c2c1ccc1c(S(=O)(=O)[O-])cc(S(=O)(=O)O)cc21 | 579 nm | 594 nm |  |  | 
C=CS(=O)(=O)CCNC(=O)CCCCCN1/C(=C/C=C/C2=[N+](CC)c3ccc4c(S(=O)(=O)[O-])cc(S(=O)(=O)O)cc4c3C2(C)C)C(C)(C)c2c1ccc1c(S(=O)(=O)O)cc(S(=O)(=O)O)cc21 [Compound 1-3] | 579 nm | 594 nm |  |  | 
CC[N+]1=C(/C=C/C=C/C=C2/N(CCCCCC(=O)O)c3ccc4ccccc4c3C2(C)C)C(C)(C)c2c1ccc1ccccc21 [Compound 10-4] |  |  | 697 nm | 713 nm | 
CC[N+]1=C(/C=C/C=C/C=C/C=C2/N(CCCCCC(=O)O)c3ccc4c(S(=O)(=O)O)cc(S(=O)(=O)O)cc4c3C2(C)C)C(C)(C)c2c1ccc1c(S(=O)(=O)[O-])cc(S(=O)(=O)O)cc21 [Compound 10-3] | 777 nm | 803 nm |  |  | 
C=CS(=O)(=O)CCNC(=O)CCCCCN1/C(=C/C=C/C=C/C=C/C2=[N+](CC)c3ccc4c(S(=O)(=O)[O-])cc(S(=O)(=O)O)cc4c3C2(C)C)C(C)(C)c2c1ccc1c(S(=O)(=O)O)cc(S(=O)(=O)O)cc21 [Compound 1-2] | 777 nm | 803 nm |  |  | discernible with naked eyes
C=CS(=O)(=O)CCNC(=O)CCCCCN1/C(=C/C=C/C=C/C2=[N+](CC)c3ccc4c(S(=O)(=O)[O-])cc(S(=O)(=O)O)cc4c3C2(C)C)C(C)(C)c2c1ccc1c(S(=O)(=O)O)cc(S(=O)(=O)O)cc21 [Compound 1-1] | 675 nm | 695 nm |  |  | discernible with naked eyes
C=CS(=O)(=O)CCNC(=O)CCCCCCCN1/C(=C/C=C/C=C/C2=[N+](CC)c3ccc4c(S(=O)(=O)O)cc(S(=O)(=O)[O-])cc4c3C2(C)C)C(C)(C)c2c1ccc1c(S(=O)(=O)O)cc(S(=O)(=O)O)cc21 [Compound 1-5] | 675 nm | 704 nm |  |  | 
C=CS(=O)(=O)CCNC(=O)CCCCCN1/C(=C/C=C/C=C/C2=[N+](CC)c3ccc4ccccc4c3C2(C)C)C(C)(C)c2c1ccc1ccccc21 [Compound 1-4] |  |  | 680 nm | 710 nm | 
CC[N+]1=C(/C=C/C=C/C=C2/N(CCCCCC(=O)O)c3ccc4c(S(=O)(=O)O)cc(S(=O)(=O)O)cc4c3C2(C)C)C(C)(C)c2c1ccc1c(S(=O)(=O)[O-])cc(S(=O)(=O)O)cc21 [Compound 10-1] | 675 nm | 695 nm |  |  | 
CC[N+]1=C(/C=C/C=C/C=C2/N(CCCCCCCC(=O)O)c3ccc4c(S(=O)(=O)O)cc(S(=O)(=O)O)cc4c3C2(C)C)C(C)(C)c2c1ccc1c(S(=O)(=O)O)cc(S(=O)(=O)[O-])cc21 [Compound 10-5] | 675 nm | 704 nm |  |  | 
